What was measured:
pYAP (Ser 127) = test: Western blotting of YAP serine 127 phosphorylation, IMR-90 cells; assay type: cell-based, human; conditions: IMR-90, DHX 10 μM, 2 hours
From the text: Scale bar represents 100 μm. […] Scale bar represents 100 μm.

[1] = system: bleomycin-induced pulmonary fibrosis; test: Bleomycin Mouse Study, dihydrexidine treatment; assay type: in vivo
Protocol: Bleomycin Mouse Study: In the initial in vivo siRNA study (FIG. 5), adult male age-matched C57BL/6N mice at 6-8 weeks of age were purchased from the National Cancer Institute (NCI)-Frederick Mouse Repository (Frederick, MD, USA). All experiments were performed in accordance with National Institute of Health guidelines and protocols approved by the Massachusetts General Hospital Subcommittee on Research Animal Care, and maintained all mice in a specific pathogen-free (SPF) environment certified by the American Association for Accreditation of Laboratory Animal Care (AAALAC). 6-8 weeks old mice were anesthetized with ketamine and xylazine before exposure of the trachea. Lung fibrosis was induced by intratracheal injection of bleomycin (50 μl at 1.2 U/kg) or phosphate buffered saline (PBS; as control) on day 0. After 14 days Small interfering RNA (siRNA) duplexes targeting mouse Yap (L-046247-01-0005) or Taz (L-058248-01-0005) mRNA (Dharmacon) or nontargeting control siRNA were administered in vivo by intratracheal instillation at a single dose of 25 μg (each siRNA) per mouse. On day 21 Mice were sacrificed and lungs harvested for collagen determination and biochemical analyses. To obtain BAL samples for total protein concentration determination, lungs were lavaged with six 0.5-ml aliquots of PBS. BAL samples were centrifuged at 3,000 g for 20 min at 4° C. and transferred the supernatants to siliconized low-binding Eppendorf tubes (PGC Scientifics) for subsequent analysis. Total protein concentration of the BAL fluid was determined by BCA Protein Assay Kit (Pierce). In the dihydrexidine treatment studies (FIG. 4), 8 week old female C57/BL6 mice were purchased from Charles River Laboratories. Mouse lung fibrosis was induced with bleomycin (BLEO; Fresenius Kabi) delivered intratracheally (3 U/kg) to the lungs using MicroSprayer® Aerosolizer (Penn-Century). The Sham mice received sterile 0.9% saline instead using identical methods. Mice were weighed every 24 hrs, and both groups were then randomized at day 10 into DHX and Control treatment groups, matching for the degree of weight change. DHX (5 mg/kg) was administered everyday intranasally (i.n.) dissolved in surfactant (infasurf) which has previously shown to aid in spreading to pulmonary aveoli for 14 days. The control groups of mice received the equivalent vehicle dose of surfactant. Following the final DHX treatment, mice were sacrificed and the right lungs were inflated with 4% paraformaldehyde (PFA) and further incubated in 4% PFA for 24 hours prior processing for paraffin embedding. The left lobe of the lung was snap frozen in liquid nitrogen for RNA isolation and hydroxyproline assay. Experimental procedures were approved by the Mayo Clinic Institutional Animal Care and Use Committee and the animals were handled in accordance with their guidelines.
Histological Scoring: Five μm thick sections were cut from Paraffin embedded lung tissues, and the sections were stained either with hematoxylin and eosin (H&E) or with Masson's Trichrome stain kit (Abcam). All H&E-stained slides and trichrome-stained slides were reviewed in a blinded fashion by a thoracic pathologist. The severity of interstitial and peribronchiolar lung immature and mature fibrosis was estimated on a numerical scale according to Ashcroft et al. For scoring purposes, all H&E stained slides were systematically scanned at 100× magnification and successive 100× fields were scored. Scoring was based on the following scale: 0 (no fibrosis), 1 (minimal interstitial and/or peribronchiolar thickening due to fibrosis), 3 (moderate thickening without obvious architectural distortion), 5 (increased fibrosis with formation of fibrous bands and/or small masses), 7 (severe architectural distortion with large areas of fibrosis and areas of honeycomb changes), and 8 (total fibrous obliteration of the field). The predominant score for each field was recorded. The mean of all scores was calculated for each case. […]

[2] = system: bile duct ligation mediated hepatic fibrosis; test: Bile Duct Ligation model of liver fibrosis; assay type: in vivo, mouse; conditions: BDL mice, DHX 5 mg/kg i.p. daily from Day 7 for 14 days
Protocol: Bile Duct Ligation: BDL was performed as previously described. Briefly, 8-10 weak old female C57BL/6N underwent either BDL or sham surgery. Mice were anesthetized on Day 0 following IACUC protocol, and the bile duct was ligated using sterile 3/0 silk ligatures. Sham surgery was performed by passing a silk ligature under the bile duct. Starting on Day 7, DHX (5 mg/kg) or vehicle control was administered everyday intraperitoneally (i.p.) for 14 days. Following the final DHX treatment, mice were sacrificed and the livers harvested for analysis of fibrosis.
Histological Scoring: Five μm thick sections were cut from Paraffin embedded lung tissues, and the sections were stained either with hematoxylin and eosin (H&E) or with Masson's Trichrome stain kit (Abcam). […] The severity of interstitial and peribronchiolar lung immature and mature fibrosis was estimated on a numerical scale according to Ashcroft et al. For scoring purposes, all H&E stained slides were systematically scanned at 100× magnification and successive 100× fields were scored. […] The predominant score for each field was recorded. The mean of all scores was calculated for each case. Liver trichrome stained sections were computationally measured using Image J software. […]
Hydroxyproline: Hydroxyproline content was measured using a hydroxyproline assay kit (Biovision) according to the manufacture's instruction with slight modification. […]

[3] = bleomycin mice, 5 mg/kg once daily i.n., day 24

## Oc1cc2c(cc1O)[C@H]1c3ccccc3CN[C@@H]1CC2 (racemic) [Dihydrexidine, dihydrexidine]
pYAP (Ser 127)
  YAP serine 127 phosphorylation: promoted YAP serine 127 phosphorylation
[1]; Sham DHX mice, identical time course and route
  lung remodeling in the absence of fibrosis (body weight, histology, collagen, gene expression): did not differ from those of control mice
[1]; bleomycin mice, 5 mg/kg once daily i.n. from Day 10
  weight change: lost significantly less weight
[1]; [3]
  lung histology (Ashcroft, blinded pathologist): nearly completely protected from lung remodeling
  staining for YAP and TAZ in the lungs: attenuated by DHX treatment
  total collagen in the lungs (hydroxyproline): nearly identical to sham treated mice
  transcript levels of Acta2, Ctgf, Fn1, Col1a1, Col1a2, Yap and Taz in lung: significantly attenuated
[2]
  collagen deposition (hydroxyproline): trend toward reduced collagen deposition
  histological fibrosis (trichrome): significantly improved histological fibrosis

Source: patent US20240252463A1, “METHODS OF TREATING FIBROTIC PATHOLOGIES” (Mayo Foundation for Medical Education and Research, priority 2018, published 2024)
